Tested on: isolated guinea pig gallbladder
Test: Functional activity in isolated guinea pig gallbladder preparation
Assay type: cell-based
Conditions: expressed as % CCK-induced maximal response; for activation at 1 µM / activation at 30 µM: Cavia porcellus; for activation at 1 µM: read-out: %Contraction (1 × 10^-6 M); for activation at 30 µM: read-out: % Contraction (3 × 10^-5 M)

SMILES	activation at 1 µM (1 × 10^-6 M test compound) [%]	activation at 30 µM (3 × 10^-5 M test compound) [%]	%Contraction (1 × 10^-6 M) (1 × 10^-6 M test compound) [%]	% Contraction (3 × 10^-5 M) (3 × 10^-5 M test compound) [%]
COc1ccc(N(C(=O)CN2C(=O)C(Cc3n[nH]c4ccccc34)C(=O)N(c3ccsc3)c3ccccc32)C(C)C)cc1 (centres unmarked) [Example 58, 2-[3-(1H-Indazol-3-ylmethyl)-2,4-dioxo-5-thiophen-3-yl-2,3,4,5-tetrahydro-benzo[b][1,4]diazepin-1-yl]-N-isopropyl-N-(4-methoxy-phenyl)-acetamide]	80	95		
COc1ccc(N(C(=O)CN2C(=O)C(Cc3n[nH]c4ccccc34)C(=O)N(c3cccs3)c3ccccc32)C(C)C)cc1 (centres unmarked) [Example 59, 2-[3-(1H-Indazol-3-ylmethyl)-2,4-dioxo-5-thiophen-2-yl-2,3,4,5-tetrahydro-benzo[b][1,4]diazepin-1-yl]-N-isopropyl-N-(4-methoxy-phenyl)-acetamide]	100	102		
Cc1ccc(N(C(=O)CN2C(=O)C(Cc3n[nH]c4cc(F)ccc34)C(=O)N(c3ccccc3)c3ccccc32)C(C)C)cc1 (centres unmarked) [Example 60, 2-[3-(6-Fluoro-1H-indazol-3-ylmethyl)-2,4-dioxo-5-phenyl-2,3,4,5,tetrahydro-benzo[b][1,4]diazepin-1-yl]-N-isopropyl-N-p-tolyl-acetamide]	94	81		
O=C1C(Cc2n[nH]c3ccccc23)C(=O)N(c2ccccc2)c2ccccc2N1CC(=O)N(c1ccccc1)C1CC1 (centres unmarked) [Example 61, N-Cyclopropyl-2-[3-(1H-indazol-3-ylmethyl)-2,4-dioxo-5-phenyl-2,3,4,5,tetrahydro-benzo[b][1,4]diazepin-1-yl]-N-phenyl-acetamide]	63	77		
COc1ccc(N(C(=O)CN2C(=O)C(Cc3n[nH]c4ccccc34)C(=O)N(c3ccccc3)c3ccccc32)C2CCCC2)cc1 (centres unmarked) [Example 62, N-Cyclopentyl-2-[3-(1H-indazol-3-ylmethyl)-2,4-dioxo-5-phenyl-2,3,4,5,tetrahydro-benzo[b][1,4]diazepin-1-yl]-N-(4-methoxy-phenyl)-acetamide]	96	86		
CC(C)N(C(=O)CN1C(=O)C(Cc2n[nH]c3cc(F)ccc23)C(=O)N(c2ccccc2)c2ccccc21)c1ccc(F)cc1 (centres unmarked) [Example 63, 2-[3-(6-Fluoro-1H-indazol-3-ylmethyl)-2,4-dioxo-5-phenyl-2,3,4,5,tetrahydro-benzo[b][1,4]diazepin-1-yl]-N-(4-fluoro-phenyl)-N-isopropyl-acetamide]	77	96		
CC(=O)n1nc(CC2C(=O)N(CC(=O)N(c3ccc(F)cc3)C(C)C)c3ccccc3N(c3ccccc3)C2=O)c2ccc(F)cc21 (centres unmarked) [Example 64, 2-[3-(1-Acetyl-6-fluoro-1H-indazol-3-ylmethyl)-2,4-dioxo-5-phenyl-2,3,4,5,tetrahydro-benzo[b][1,4]diazepin-1-yl]-N-(4-fluoro-phenyl)-N-isopropyl-acetamide]	67	98		
CC(C)(C)N(C(=O)CN1C(=O)C(Cc2n[nH]c3ccccc23)C(=O)N(c2ccccc2)c2ccccc21)c1ccccc1 (centres unmarked) [Example 65, N-tert-Butyl-2-[3-(1H-indazol-3-ylmethyl)-2,4-dioxo-5-phenyl-2,3,4,5,tetrahydro-benzo[b][1,4]diazepin-1-yl]-N-phenyl-acetamide]	88	93		
COc1ccc(N(C(=O)CN2C(=O)C(Cc3n[nH]c4ccccc34)C(=O)N(c3cccnc3)c3cc(F)ccc32)C(C)C)cc1 (centres unmarked) [Example 66, 2-[7-Fluoro-3-(1H-indazol-3-ylmethyl)-2,4-dioxo-5-pyridin-3-yl-2,3,4,5-tetrahydro-benzo[b][1,4]diazepin-1-yl]-N-isopropyl-N-(4-methoxy-phenyl)-acetamide]	97	116		
COc1ccc(N(C(=O)CN2C(=O)C(Cc3n[nH]c4ccccc34)C(=O)N(c3ccccc3)c3cc(F)c(F)cc32)C(C)C)cc1 (centres unmarked) [Example 67, 2-[7,8-Difluoro-3-(1H-indazol-3-ylmethyl)-2,4-dioxo-5-phenyl-2,3,4,5-tetrahydro-benzo[b][1,4]diazepin-1-yl]-N-isopropyl-N-(4-methoxy-phenyl)-acetamide]	78	102		
CC(C)N(C(=O)CN1C(=O)C(Cc2n[nH]c3ccccc23)C(=O)N(c2ccccc2)c2ccccc21)c1ccccc1 (centres unmarked) [Example 68, 2-[3-(1H-indazol-3-ylmethyl)-2,4-dioxo-5-phenyl-2,3,4,5-tetrahydro-benzo[b][1,4]diazepin-1-yl]-N-isopropyl-N-phenyl-acetamide]	93	99		
CC(C)N(C(=O)CN1C(=O)C(Cc2n[nH]c3cc(F)ccc23)C(=O)N(c2ccccc2)c2ccccc21)c1ccccc1 (centres unmarked) [Example 69, 2-[3-(6-Fluoro-1H-indazol-3-ylmethyl)-2,4-dioxo-5-phenyl-2,3,4,5-tetrahydro-benzo[b][1,4]diazepin-1-yl]-N-isopropyl-N-phenyl-acetamide]	98	92		
CC(C)N(C(=O)CN1C(=O)C(Cc2n[nH]c3cc(F)ccc23)C(=O)N(c2ccccc2)c2ccccc21)c1ccc(OC(F)(F)F)cc1 (centres unmarked) [Example 70, 2-[3-(6-Fluoro-1H-indazol-3-ylmethyl)-2,4-dioxo-5-phenyl-2,3,4,5-tetrahydro-benzo[b][1,4]diazepin-1-yl]-N-isopropyl-N-(4-trifluoromethoxy-phenyl)-acetamide]	66	73		
COc1ccc(N(C(=O)CN2C(=O)C(Cc3n[nH]c4ccccc34)C(=O)N(c3cccnc3)c3ccccc32)C(C)C)cc1 (centres unmarked) [Example 71, 2-[3-(1H-indazol-3-ylmethyl)-2,4-dioxo-5-pyridin-3-yl-2,3,4,5-tetrahydrobenzo[b][1,4]diazepin-1-yl]-N-isopropyl-N-(4-methoxy-phenyl) acetamide]	106	92		
COc1ccc(N(C(=O)CN2C(=O)C(C)(Cc3n[nH]c4ccccc34)C(=O)N(c3cccnc3)c3ccccc32)C(C)C)cc1 (centres unmarked) [Example 74, 2-[3-(1H-Indazol-3-ylmethyl)-3-methyl-2,4-dioxo-5-pyridin-3-yl-2,3,4,5-tetrahydro-benzo[b][1,4]diazepin-1-yl]-N-isopropyl-N-(4-methoxy-phenyl)-acetamide]	86	88		
COc1ccc(N(C(=O)CN2C(=O)C(C)(Cc3n[nH]c4ccccc34)C(=O)N(c3cccnc3)c3ccccc32)C(C)C)cc1 (centres unmarked) [Example 76, 2-[3-(1H-indazol-3-ylmethyl)-3-methyl-2,4-dioxo-5-pyridin-3-yl-2,3,4,5-tetrahydro-benzo[b][1,4]diazepin-1-yl]-N-isopropyl-N-(4-methoxy-phenyl)-acetamide]			93	95
CC(C)N(C(=O)CN1C(=O)C(Cc2n[nH]c3ccccc23)C(=O)N(c2ccccc2)c2ccccc21)c1ccc2c(c1)OCO2 (centres unmarked) [Example 77, 2-[3-(1H-Indazol-3-ylmethyl)-2,4-dioxo-5-phenyl-2,3,4,5-tetrahydrobenzo[b][1,4]diazepin-1-yl]-N-isopropyl-N-(3,4-methylenedioxy-phenyl) acetamide]	78	120		
COc1ccccc1N(C(=O)CN1C(=O)C(Cc2n[nH]c3ccccc23)C(=O)N(c2ccccc2)c2ccccc21)C(C)C (centres unmarked) [Example 78, 2-[3-(1H-Indazol-3-ylmethyl)-2,4-dioxo-5-phenyl-2,3,4,5-tetrahydrobenzo[b][1,4]diazepin-1-yl]-N-isopropyl-N-(2-methoxy-phenyl) acetamide]	43			
COc1cccc(N(C(=O)CN2C(=O)C(Cc3n[nH]c4ccccc34)C(=O)N(c3ccccc3)c3ccccc32)C(C)C)c1 (centres unmarked) [Example 79, 2-[3-(1H-Indazol-3-ylmethyl)-2,4-dioxo-5-phenyl-2,3,4,5-tetrahydrobenzo[b][1,4]diazepin-1-yl]-N-isopropyl-N-(3-methoxy-phenyl) acetamide]	92	93		
COc1ccc(N(C(=O)CN2C(=O)C(Cc3n[nH]c4ccccc34)C(=O)N(c3ccncc3)c3ccccc32)C(C)C)cc1 (centres unmarked) [Example 80, 2-[3-(1H-Indazol-3-ylmethyl)-2,4-dioxo-5-pyridin-4-yl-2,3,4,5-tetrahydro-benzo[b][1,4]diazepin-1-yl]-N-isopropyl-N-(4-methoxy-phenyl)-acetamide]	81	73		
COc1ccc(N(C(=O)CN2C(=O)C(Cc3n[nH]c4ccccc34)C(=O)N(c3cccc(F)c3)c3ccccc32)C(C)C)cc1 (centres unmarked) [Example 81, 2-[5-(3-Fluoro-phenyl)-3-(1H-indazol-3-ylmethyl)-2,4-dioxo-2,3,4,5-tetrahydro-benzo[b][1,4]diazepin-1-yl]-N-isopropyl-N-(4-methoxy-phenyl)-acetamide]	97	96		
COc1ccc(N(C(=O)CN2C(=O)C(COCc3ccccc3)C(=O)N(c3ccccc3)c3ccccc32)C(C)C)cc1 (centres unmarked) [Example 82, 2-[3-(Benzyloxymethyl)-2,4-dioxo-5-phenyl-2,3,4,5-tetrahydro-benzo[b][1,4]diazepin-1-yl]-N-isopropyl-N-(4-methoxy-phenyl)-acetamide]	69	89		
CC(C)N(C(=O)CN1C(=O)C(Cc2n[nH]c3ccccc23)C(=O)N(c2cccnc2)c2ccccc21)c1ccccc1 (centres unmarked) [Example 83, 2-[3-(1H-Indazol-3-ylmethyl)-2,4-dioxo-5-pyridin-3-yl-2,3,4,5-tetrahydrobenzo[b][1,4]diazepin-1-yl]-N-isopropyl-N-phenyl acetamide]	85	97		
COc1ccc(N(C(=O)CN2C(=O)C(C)(CC(=O)Nc3ccccc3)C(=O)N(c3cccnc3)c3ccccc32)C(C)C)cc1 (centres unmarked) [Example 84, N-Isopropyl-N-[4-methoxyphenyl]-2-[3-methyl-2,4-dioxo-3-phenylcarbamoylmethyl-5-pyridin-3-yl-2,3,4,5-tetrahydrobenzo[b][1,4]diazepin-1-yl) acetamide]	96	96		

Source: patent US5859007A, “CCK or gastrin modulating benzo [b][1,4] diazepines derivatives” (Glaxo Wellcome Inc., priority 1994, dated 1999)
